Test results taken from US11491150B2, “Organic compounds” (INTRA-CELLULAR THERAPIES, INC., priority 2017, dated 2022).
Read-outs that look alike come from different tables or passages of the source.

Tests used:
mouse model of diabetes = assay: Nephropathy in streptozotocin mouse model of diabetes (eNOS-/- mice), α7-nAchR blocker; format: in vivo; details: blocker 2 mg/kg i.p. 5 days a week, 10 weeks; for Systolic BP: tail-cuff
Protocol: Normal mice express the α7-nAChR in both the proximal and distal tubule of the kidneys. Tests were conducted to determine the role of the α7-nAchR on the severity of nephropathy in a mouse model of diabetes. Diabetes mellitus (DM) was induced in all mice with streptozotocin (STZ). This test closely mimics diabetic […] in humans. Mice were either given nicotine (DN) in doses of […] in drinking water or tap water with no nicotine for a period of 10 weeks (DT). Targeted disruption of the endothelial nitric oxide synthase gene led to eNOS^-/- knockout in a group of mice to increase susceptibility of STZ in the mice. One group of eNOS^-/- knockout mice was also subjected to targeted disruption of the α7-nAchR gene, which led to eNOS^-/-/α7-nAchR^-/- double knockout mice (DN^-/- and DT^-/-). A separate group of eNOS^-/- mice also received a α7-nAchR blocker (DN+B and DT+B). The blocker used was Compound 17 at a dosage of 2 mg/kg given intraperitoneally for 5 days a week for a period of 10 weeks. Blood pressure was measured by tail-cuff method and urine was collected every 2 weeks for albuminuria.
All mice became diabetic after being administered STZ, and all mice were also hypertensive.

α7 nAChR = α7 nAChR (Homo sapiens, UniProt P36544); assay: Binding at 10 μM to α7 nAChR (selectivity test)
Sequence of α7 nAChR (P36544 23-502): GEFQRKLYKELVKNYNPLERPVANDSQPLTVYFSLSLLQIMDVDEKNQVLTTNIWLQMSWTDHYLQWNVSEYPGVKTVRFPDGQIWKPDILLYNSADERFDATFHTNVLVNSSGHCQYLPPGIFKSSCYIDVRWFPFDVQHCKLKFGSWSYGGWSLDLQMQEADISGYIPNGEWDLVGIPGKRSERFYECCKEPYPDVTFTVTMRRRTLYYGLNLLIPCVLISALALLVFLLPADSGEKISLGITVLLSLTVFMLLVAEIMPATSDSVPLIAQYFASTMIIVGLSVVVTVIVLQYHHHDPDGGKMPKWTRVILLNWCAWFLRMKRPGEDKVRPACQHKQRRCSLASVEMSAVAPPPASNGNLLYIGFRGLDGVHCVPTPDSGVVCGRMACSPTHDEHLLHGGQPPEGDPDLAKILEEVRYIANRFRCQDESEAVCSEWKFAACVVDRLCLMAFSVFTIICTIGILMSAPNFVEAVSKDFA

neuronal α4β2 nAChR = neuronal α4β2 nAChR (Homo sapiens, UniProt P17787+P43681); assay: Binding at 10 μM to neuronal α4β2 nAChR (selectivity test)
Sequence of neuronal α4β2 nAChR (P43681 29-627 limits assumed): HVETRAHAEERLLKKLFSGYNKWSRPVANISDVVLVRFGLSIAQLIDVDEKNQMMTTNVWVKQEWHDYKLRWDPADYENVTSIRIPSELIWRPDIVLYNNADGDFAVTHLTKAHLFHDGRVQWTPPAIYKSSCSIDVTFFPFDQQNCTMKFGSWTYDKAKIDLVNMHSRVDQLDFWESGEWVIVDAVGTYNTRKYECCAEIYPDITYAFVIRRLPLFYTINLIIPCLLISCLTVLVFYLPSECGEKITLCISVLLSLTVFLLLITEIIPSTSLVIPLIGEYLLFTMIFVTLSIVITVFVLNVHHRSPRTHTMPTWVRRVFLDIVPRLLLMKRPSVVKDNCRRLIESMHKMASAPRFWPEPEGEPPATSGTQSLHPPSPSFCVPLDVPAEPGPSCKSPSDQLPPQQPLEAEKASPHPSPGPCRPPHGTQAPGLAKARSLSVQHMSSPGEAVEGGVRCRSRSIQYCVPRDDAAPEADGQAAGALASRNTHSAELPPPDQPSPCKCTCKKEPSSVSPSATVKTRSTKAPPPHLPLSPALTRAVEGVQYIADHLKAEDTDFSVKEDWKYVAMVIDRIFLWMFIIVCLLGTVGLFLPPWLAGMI
Sequence of neuronal α4β2 nAChR (P17787 26-502): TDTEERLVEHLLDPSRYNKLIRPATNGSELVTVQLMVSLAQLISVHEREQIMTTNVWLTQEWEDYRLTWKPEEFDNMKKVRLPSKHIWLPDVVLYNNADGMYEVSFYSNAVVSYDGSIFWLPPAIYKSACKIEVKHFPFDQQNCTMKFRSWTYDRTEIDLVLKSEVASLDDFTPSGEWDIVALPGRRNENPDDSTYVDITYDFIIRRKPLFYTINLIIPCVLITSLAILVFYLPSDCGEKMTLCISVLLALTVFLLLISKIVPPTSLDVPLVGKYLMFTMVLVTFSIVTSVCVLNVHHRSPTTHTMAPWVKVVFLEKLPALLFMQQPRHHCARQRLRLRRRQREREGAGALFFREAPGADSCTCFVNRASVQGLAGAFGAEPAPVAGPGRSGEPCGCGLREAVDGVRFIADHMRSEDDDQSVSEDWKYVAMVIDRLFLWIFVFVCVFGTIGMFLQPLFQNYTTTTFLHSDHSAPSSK
Protocol: (§1) The selectivity of these compounds is measured on the neuronal α4β2 and the muscle-type nAChRs using methods known in the art.

muscle-type nAChRs = assay: Binding at 10 μM to muscle-type nAChRs (selectivity test)
Protocol: as §1

[1] = Pharmacokinetic study, brain penetrability after oral administration; format: in vivo; details: mouse, male C57B1/6 mice, oral 10 mg/kg, t=2 h
Protocol: The pharmacokinetic (PK) study of compounds are performed in male C57B1/6 mice (n=3 per time point) after an oral administration at 10 mg/kg to evaluate the brain penetrability. The concentrations of representative Compound 16 in brain and plasma are 0.15 μM and 0.2 μM at time t=2 h, respectively. The tmax of Compound Q is probably longer than 2 h.

[2] = DN + B: diabetic eNOS-/- mice on nicotine
[3] = DT + B: diabetic eNOS-/- mice on tap water

Structure (SMILES) | Albuminuria (mouse model of diabetes; [2]) | Blood Glucose (mouse model of diabetes; [2]) | Systolic BP (mouse model of diabetes; [2]) | Albuminuria (mouse model of diabetes; [3]) | Blood Glucose (mouse model of diabetes; [3]) | Systolic BP (mouse model of diabetes; [3]) | binding to the α7 receptor (α7 nAChR) | binding to the neuronal α4β2 nAChR (neuronal α4β2 nAChR) | binding to muscle-type nAChRs (muscle-type nAChRs) | concentration at 2 h ([1]; brain, read-out: concentration in brain) | concentration at 2 h ([1]; plasma, read-out: concentration in plasma)
NS(=O)(=O)c1ccc(Cn2ncc(C(=O)NCC3CCN(Cc4ccccc4)CC3)n2)cc1 [Compound 17] | 35 ± 6 ng/ml/24 hr | 441 ± 43 mg/dL | 142 ± 13 mmHg | 50 ± 13 ng/ml/24 hr | 354 ± 51 mg/dL | 150 ± 11 mmHg |  |  |  |  | 
CN(CC1CC[N+](C)(Cc2ccccc2)CC1)C(=O)c1cn(Cc2ccccc2Cl)nn1 (centres unmarked) [Compound 16] |  |  |  |  |  |  | 92% | no detectable binding | no detectable binding | 150 nM | 200 nM
